Measurements: ChEMBL document CHEMBL1135107, “Synthesis and evaluation of new antimalarial analogues of quinoline alkaloids derived from Cinchona ledgeriana Moens ex Trimen” (Bioorg Med Chem Lett, 2002)
pIC50: −log10 of the molar value.

How the values were obtained:
[1] = tested on: Plasmodium falciparum; assay: In vitro antimalarial activity against Plasmodium falciparum W2 in human erythrocytes by [3H]hypoxanthine uptake; format: functional, organism-based
[2] = tested on: Plasmodium falciparum; assay: In vitro inhibition of parasite development of Plasmodium falciparum W2 in human erythrocytes; format: functional, organism-based

Row | SMILES | pIC50 ([1]; Plasmodium falciparum) | pIC50 ([2]; Plasmodium falciparum) | pIC50 [1] | pIC50 [2]
1 | C=C[C@H]1C[N@+]2(Cc3cc(C(C)(C)C)c(OC)c(C(C)(C)C)c3)CC[C@H]1C[C@H]2[C@H](O)c1ccnc2ccc(OC)cc12 | 6.42 | 7.00 |  | 
2 | C=C[C@H]1C[N@+]2(Cc3cc(C(C)(C)C)c(OC)c(C(C)(C)C)c3)CC[C@H]1C[C@H]2[C@H](O)c1ccnc2ccccc12 | 6.29 | 6.80 |  | 
3 | C=C[C@H]1C[N@+]2(Cc3cc(C(C)(C)C)c(OC)c(C(C)(C)C)c3)CC[C@H]1C[C@@H]2[C@@H](O)c1ccnc2ccc(OC)cc12 | 6.00 | 6.29 |  | 
4 | C=CCO[C@@H](c1ccnc2ccc(OC)cc12)[C@H]1C[C@@H]2CC[N@@+]1(Cc1cc(C(C)(C)C)c(OC)c(C(C)(C)C)c1)C[C@@H]2C=C | 5.92 | 6.64 |  | 
5 | C=CCO[C@H](c1ccnc2ccccc12)[C@@H]1C[C@@H]2CC[N@@+]1(Cc1cc(C(C)(C)C)c(OC)c(C(C)(C)C)c1)C[C@@H]2C=C | 5.96 | 6.24 |  | 
6 | C=C[C@H]1C[N@+]2(Cc3cc(C(C)(C)C)c(OC)c(C(C)(C)C)c3)CC[C@H]1C[C@@H]2[C@@H](O)c1ccnc2ccccc12 (stereo in doubt; form 1) |  |  | 6.10 | 6.28
7 | C=C[C@H]1C[N@+]2(Cc3cc(C(C)(C)C)c(OC)c(C(C)(C)C)c3)CC[C@H]1C[C@@H]2[C@@H](O)c1ccnc2ccccc12 (stereo in doubt; form 2) |  |  | 6.44 | 6.80
8 | C=C[C@H]1CN2CC[C@H]1C[C@H]2[C@H](O)c1ccnc2ccccc12 [CINCHONIDINE] | 6.42 | 6.54 |  | 
9 | C=C[C@H]1CN2CC[C@H]1C[C@@H]2[C@@H](O)c1ccnc2ccccc12 [CINCHONINE] | 6.66 | 7.29 |  | 
10 | C=C[C@H]1CN2CC[C@H]1C[C@@H]2[C@@H](O)c1ccnc2ccc(OC)cc12 [QUINIDINE] | 6.80 | 8.40 |  | 
11 | C=C[C@H]1CN2CC[C@H]1C[C@H]2[C@H](O)c1ccnc2ccc(OC)cc12 [QUININE] | 6.43 | 6.92 |  | 

Second part, led by results:

Row | pIC50 ([1]; Plasmodium falciparum) | pIC50 ([2]; Plasmodium falciparum) | SMILES | pIC50 [1] | pIC50 [2]
12 | 6.39 | 7.00 | C=C[C@H]1C[N@+]2(Cc3cc(C(C)(C)C)c(OC)c(C(C)(C)C)c3)CC[C@H]1C[C@@H]2[C@@H](OCc1ccccc1)c1ccnc2ccc(OC)cc12 |  | 
13 | 6.28 | 7.20 | C=C[C@H]1C[N@+]2(Cc3cc(C(C)(C)C)c(OC)c(C(C)(C)C)c3)CC[C@H]1C[C@H]2[C@H](OCc1ccccc1)c1ccnc2ccccc12 |  | 
14 | 6.21 | 6.82 | C=C[C@H]1C[N@+]2(Cc3cc(C(C)(C)C)c(OC)c(C(C)(C)C)c3)CC[C@H]1C[C@H]2[C@H](OCc1ccccc1)c1ccnc2ccc(OC)cc12 |  | 
15 | 5.96 | 6.92 | C=C[C@H]1C[N@+]2(Cc3cc(C(C)(C)C)c(OC)c(C(C)(C)C)c3)CC[C@H]1C[C@@H]2[C@@H](OCc1ccccc1)c1ccnc2ccccc12 |  | 
16 | 6.00 | 6.39 | C=CCO[C@H](c1ccnc2ccc(OC)cc12)[C@@H]1C[C@@H]2CC[N@@+]1(Cc1cc(C(C)(C)C)c(OC)c(C(C)(C)C)c1)C[C@@H]2C=C |  | 
